Data: ChEMBL document CHEMBL1201862, “PubChem BioAssay data set” (2004)
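Protocol summary: plate cells (96-well), add compound at 5 concentrations, incubate 48 h, interpolate endpoints linearly. GI50 marks 50% less growth.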 Calls of active or inactive are those of the source. Rule as the data show it: active = GI50 up to about 1.1 µM and inactive = higher.

Columns and labels:
Experiment in all cases: inhibition of tumour cell growth, NCI panel, 48 h
[1] = test system: CCRF-CEM
[2] = test system: SNB-19
[3] = test system: RXF 631
[4] = test system: Malme-3M
[5] = test system: RPMI-8226
[6] = test system: HCT-15
[7] = test system: A549
[8] = test system: CAKI-1
[9] = test system: IGROV-1
[10] = test system: NCI-H522
[11] = test system: DLD-1
[12] = test system: SK-MEL-2
[13] = test system: SN12C
[14] = test system: HCC 2998
[15] = test system: UACC-62
[16] = test system: OVCAR-4
[17] = test system: HCT-116
[18] = test system: SW-620
[19] = test system: K562
[20] = test system: ACHN
[21] = test system: XF498
[22] = test system: LOX IMVI
[23] = test system: SF-295
[24] = test system: SK-OV-3
[25] = test system: NCI-H226
[26] = test system: SK-MEL-5
[27] = test system: SNB-75
[28] = test system: HL-60
[29] = test system: UO-31
[30] = test system: SF-268
[31] = test system: M14
[32] = test system: HOP-92
[33] = test system: KM12
[34] = test system: LXFL 529
[35] = test system: DMS-114
[36] = test system: KM-20L2
[37] = test system: UACC-257
[38] = test system: NCI-H460
[39] = test system: OVCAR-3
[40] = test system: MOLT-4
[41] = test system: OVCAR-8
[42] = test system: 786-0
[43] = test system: HT-29
[44] = test system: A498
[45] = test system: HOP-62
[46] = test system: OVCAR-5
[47] = test system: TK-10
[48] = test system: M19-MEL
[49] = test system: SK-MEL-28
[50] = test system: RXF 393
[51] = test system: SF-539
[52] = test system: COLO 205
[53] = test system: NCI-H23
[54] = test system: EKVX
[55] = test system: SR

Structure (SMILES): CN1C[C@@H]2CC(=O)CC[C@@H]2C[C@H]1C#N
- GI50 [1]: > 100 µM (inactive)
- GI50 [2]: > 100 µM (inactive)
- GI50 [3]: > 100 µM (inactive)
- GI50 [4]: > 100 µM (inactive)
- GI50 [5]: > 100 µM (inactive)
- GI50 [6]: > 100 µM
- GI50 [7]: > 100 µM (inactive)
- GI50 [8]: > 100 µM (inactive)
- GI50 [9]: > 100 µM (inactive)
- GI50 [10]: > 100 µM (inactive)
- GI50 [11]: > 100 µM (inactive)
- GI50 [12]: > 100 µM (inactive)
- GI50 [13]: > 100 µM (inactive)
- GI50 [14]: > 100 µM (inactive)
- GI50 [15]: > 100 µM (inactive)
- GI50 [16]: > 100 µM (inactive)
- GI50 [17]: > 100 µM (inactive)
- GI50 [18]: > 100 µM (inactive)
- GI50 [19]: > 100 µM (inactive)
- GI50 [20]: > 100 µM (inactive)
- GI50 [21]: > 100 µM (inactive)
- GI50 [22]: > 100 µM (inactive)
- GI50 [23]: > 100 µM (inactive)
- GI50 [24]: > 100 µM (inactive)
- GI50 [25]: > 100 µM (inactive)
- GI50 [26]: > 100 µM (inactive)
- GI50 [27]: > 100 µM (inactive)
- GI50 [28]: > 100 µM (inactive)
- GI50 [29]: > 100 µM (inactive)
- GI50 [30]: > 100 µM (inactive)
- GI50 [31]: > 100 µM (inactive)
- GI50 [32]: > 100 µM (inactive)
- GI50 [33]: > 100 µM (inactive)
- GI50 [34]: > 100 µM (inactive)
- GI50 [35]: > 100 µM (inactive)
- GI50 [36]: > 100 µM (inactive)
- GI50 [37]: > 100 µM (inactive)
- GI50 [38]: > 100 µM (inactive)
- GI50 [39]: > 100 µM (inactive)
- GI50 [40]: > 100 µM (inactive)
- GI50 [41]: > 100 µM (inactive)
- GI50 [42]: > 100 µM (inactive)
- GI50 [43]: > 100 µM (inactive)
- GI50 [44]: > 100 µM (inactive)
- GI50 [45]: > 100 µM (inactive)
- GI50 [46]: > 100 µM (inactive)

Structure (SMILES): C/C(=N/NC(=O)C[n+]1ccccc1)C(CN(CC(C)C)CC(C)C)C(=O)Nc1ccc(C)cc1C (stereo unspecified)
- GI50 [1]: > 100 µM (inactive)
- GI50 [2]: 26.7 µM (inactive)
- GI50 [3]: > 100 µM (inactive)
- GI50 [4]: > 100 µM (inactive)
- GI50 [5]: 68.1 µM (inactive)
- GI50 [7]: > 100 µM (inactive)
- GI50 [47]: 78.2 µM (inactive)
- GI50 [9]: > 100 µM (inactive)
- GI50 [10]: 40.8 µM (inactive)
- GI50 [11]: > 100 µM (inactive)
- GI50 [12]: > 100 µM (inactive)
- GI50 [13]: 51.4 µM (inactive)
- GI50 [14]: > 100 µM (inactive)
- GI50 [15]: > 100 µM (inactive)
- GI50 [16]: > 100 µM (inactive)
- GI50 [17]: > 100 µM (inactive)
- GI50 [18]: > 100 µM (inactive)
- GI50 [19]: > 100 µM (inactive)
- GI50 [20]: 54.5 µM (inactive)
- GI50 [24]: > 100 µM (inactive)
- GI50 [26]: > 100 µM (inactive)
- GI50 [48]: > 100 µM (inactive)
- GI50 [28]: 59.6 µM (inactive)
- GI50 [29]: 15.1 µM (inactive)
- GI50 [49]: > 100 µM (inactive)
- GI50 [30]: > 100 µM (inactive)
- GI50 [50]: 61.2 µM (inactive)
- GI50 [31]: > 100 µM (inactive)
- GI50 [32]: 43.3 µM (inactive)
- GI50 [51]: > 100 µM (inactive)
- GI50 [35]: > 100 µM (inactive)
- GI50 [36]: > 100 µM (inactive)
- GI50 [37]: > 100 µM (inactive)
- GI50 [38]: > 100 µM (inactive)
- GI50 [40]: > 100 µM (inactive)
- GI50 [41]: > 100 µM (inactive)
- GI50 [42]: > 100 µM (inactive)
- GI50 [43]: > 100 µM (inactive)
- GI50 [44]: 25.4 µM (inactive)
- GI50 [52]: > 100 µM (inactive)
- GI50 [53]: > 100 µM (inactive)
- GI50 [45]: 90.8 µM (inactive)
- GI50 [54]: 45.1 µM (inactive)
- GI50 [46]: 65.5 µM (inactive)
- GI50 [55]: > 100 µM (inactive)
